Results as given in US12673039B2, “Methods of inducing autophagy using coumarin derivatives and related compounds” (Buck Institute for Research on Aging, priority 2019, dated 2026).

Biological target: T1, DAF-12 (Caenorhabditis elegans, UniProt G5EFF5)
T1 construct: expressed in transfected cells; host or cells: HEK293T
T1 sequence (G5EFF5 516-753 limits assumed): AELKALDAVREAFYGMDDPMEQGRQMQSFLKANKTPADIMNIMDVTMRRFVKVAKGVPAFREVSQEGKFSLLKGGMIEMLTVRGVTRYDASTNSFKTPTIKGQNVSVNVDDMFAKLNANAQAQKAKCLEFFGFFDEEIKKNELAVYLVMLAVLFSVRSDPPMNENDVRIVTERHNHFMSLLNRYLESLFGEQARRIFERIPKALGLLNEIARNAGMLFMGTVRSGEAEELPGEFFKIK
Test: Mammalian one-hybrid DAF-12 activity assay (HEK293T)
Assay type: cell-based, human
Conditions: compound alone
Experimental: FIG. 10 illustrates that coumarin 106 (“C1”, “AIC106”) inhibits induction of the worm FXR homologue DAF-12. The ability of C1 (10 μM) to inhibit activation of the FXR worm homologue DAF-12 by its ligand dafachronic acid (Df acid); values are fold activity induction versus untreated controls; ****p<0.01 versus GW; **p<0.05 versus GW.
FIG. 22, panels A-H: AIC106-induced HLH-30 expression is mediated by the nuclear hormone receptor DAF-12. Panel A) The upstream promoter region (2 kB) of hlh-30 was analyzed by JASPAR CORE database to determine DAF-12 binding sites (1: SEQ ID NO:1, 2: 1: SEQ ID NO:2, 3: SEQ ID NO:3, 4: SEQ ID NO:4, 5: SEQ ID NO:5, 6: SEQ ID NO:6, 7: SEQ ID NO:7, 8: SEQ ID NO:8, 9: SEQ ID NO:9, 10: SEQ ID NO:10, 11: SEQ ID NO:11, 12: SEQ ID NO:12). Panel B) Relative fold change in mRNA of hlh-30 compared to DMSO-control was quantified using qRT-PCR in young adult wild-type N2 and daf-12(rh61rh411) worms post-24 hours treatment with AIC106. [N=3 independent experiments (mean±SD). **p<0.01, by one-way ANOVA with Sidak's multiple comparisons test]. Panel C) Effects of AIC106 on DAF-12 activity was determined in a mammalian one-hybrid assay by quantifying changes in the luciferase activity of DAF-12 ligand (dafachronic acid, DA) induced treatment. [N=3 independent experiments (mean±SD). *p<0.05 **p<0.01 and ***p<0.001, by one-way ANOVA with Tukey's multiple comparisons test]. Panel D) Schematic diagram showing that addition of AIC106 or inhibition of DAF-12 ligand synthesis, which leads to un-liganded DAF-12 may result in enhanced HLH-30 expression. Panel E) Dafadine-A (DFA), a specific inhibitor of key enzyme required for synthesis of DAF-12 ligand induces HLH-30 expression. Immunoblot for GFP was performed on protein lysate of HLH-30; GFP (MAH235) young adult worms treated with DFA or DMSO-control for 24 hours. Panel F) Protection against mitochondrial toxin (FCCP) was determined by quantifying survival of young adult worms treated 24 hours with DFA or DMSO-control. [N=3 independent experiments (mean±SD). **p<0.01, by two-way ANOVA with Tukey's multiple comparisons test]. Panel G) Motor function in day-7 NL5901 worms were quantified by scoring number of thrashes for an individual worm over the period of 30 seconds (dots) in DFA and DMSO-control treatment. [N=3 independent experiments (mean±SD). **p<0.01, by unpaired t-test] […] [N=3 independent experiments (mean±SD). *p<0.05, by one-way ANOVA with Tukey's multiple comparisons test].
FIG. 29, panels A-C: AIC106 modulates DAF-12 activity. […] Luciferase activity was measured to quantify DAF-12 activity. Panel C) Dose dependent increase in DAF-12 activity after treatment with known DAF-12 ligand, dafachronic acid (DA) was determined by quantifying luciferase activity. […]

Row | Molecule | DAF-12 activity (luciferase)
1 | dafachronic acid [reference compound] | increase DAF-12 activity in a dose dependent manner

Test system: TFEB
Test: TFEB activation screen, % activation/control at 24 and 48 hrs (Table 1)
Assay type: cell-based, human
Conditions: Homo sapiens, 24 h
Experimental: FIG. 25, panels A-B::AIC106 identified as a lead compound in a TFEB-transcription based screen. Panel A) Rat Neuronal N27 cells were transfected with a vector construct driving expression of secreted-Gaussia luciferase (Sec-Gaussia) in control of 2 kb human TFEB promoter. Next day, cells were seeded into 96-well cell culture plate and exposed to compounds (30 μM) from natural product library (NPL-640) or DMSO-control. After 24 and 48 hours of compound treatment supernatant from the cells was collected and TFEB promoter activity determined by quantifying luciferase activity. Panel B) Effects of AIC106 treatment on HLH-30 expression after 24 hours treatment were determined by immunoblot against GFP in young adult stage of GFP-tagged HLH-30 strain (MAH235) following total protein extraction.
It was discovered that small structural alterations in the C1 compound can have significant effects on the degree of TFEB activation (see, e.g., FIG. 17) the screening systems described herein identified a number of structures related to C1 that similarly induce TFEB.
In vitro drug screening studies. […] We utilized for these studies a 3000 compound natural product derivative library (Timtec, Newark, DE) in […] transfected with a sensitive TFEB promotor-Gaussian luciferase construct. […] C1 is a coumarin-related compound, part of a family of natural benzopyrones found in many edible plants.
To identify novel transcriptional inducers of TFEB, we transfected rat neuronal N27 cells with a vector driving expression of secreted-luciferase under control of the human TFEB promoter. […] AIC106 belongs to a family of coumarin compounds containing an active benzopyrone ring.

Row | Molecule | activity at 30 µM
2 | O=c1oc2c(Cl)cc(Cl)cc2c(-c2ccccc2)c1-c1ccc(Cl)cc1Cl [F5] | 105%
3 | Cc1cc2oc(=O)c(-c3ccc(Cl)cc3)c(-c3ccc(Cl)cc3)c2cc1Cl [D5] | 103%
4 | O=c1oc2ccccc2c(-c2ccccc2)c1-c1cccc(Br)c1 [G5] | 65.1%
5 | Cc1ccc2oc(=O)c(-c3ccc(Cl)cc3Cl)c(-c3ccc(Cl)cc3)c2c1 [B6] | 91.2%
6 | C=CCOc1ccc2c(-c3ccccc3)c(-c3cccc(Br)c3)c(=O)oc2c1 [E4] | 400%
7 | COc1ccc(-c2c(-c3ccccc3)c3ccc(O)cc3oc2=O)c(Cl)c1OC [D3] | 381%
8 | O=CC1Cc2cc3c4c(c2OC1=O)CCCN4CCC3 (centres unmarked) [E6] | 367%
9 | O=c1oc2ccc(Br)cc2c(-c2ccccc2)c1-c1cccc(Cl)c1 [F4] | 365%
10 | O=c1oc2cc(O)cc(-c3ccccc3)c2cc1-c1ccccc1Cl [C3 ST081388] | 317%
11 | Cc1ccc2oc(=O)c(-c3ccccc3)c(-c3ccccc3)c2c1 [H5] | 70.1%
12 | O=c1oc2ccc(Br)cc2c(-c2ccccc2)c1-c1ccccc1Cl [E3] | 347%
13 | Cc1cc2oc(=O)c(-c3ccccc3)c(-c3ccccc3)c2cc1Cl [A5] | 62.3%
14 | O=C(O)C1Cc2cc3c4c(c2CC1=O)CCCN4CCC3 (centres unmarked) [D2] | 336%
15 | O=c1oc2ccc(Br)cc2c(-c2ccc(Cl)cc2)c1-c1ccc(Cl)cc1Cl [C4] | 432%
16 | O=c1oc2ccc(Br)cc2c(-c2ccccc2Cl)c1-c1cccc(Cl)c1 [F3] | 302%
17 | O=c1oc2ccc(Cl)cc2c(-c2ccc(Cl)cc2)c1-c1ccc(Cl)cc1 [H3] | 361%
18 | O=c1oc2c(Cl)cc(Cl)cc2c(-c2ccc(Cl)cc2)c1-c1ccccc1 [C6] | 104%
19 | O=c1oc2cc(O)ccc2c(-c2ccccc2)c1-c1cccc(Cl)c1 [H2] | 334%
20 | O=c1oc2ccccc2c(-c2ccccc2)c1-c1ccc(Cl)cc1Cl [B3] | 338%

Row | Molecule | activity at 30 µM
21 | O=c1oc2ccccc2c(-c2ccccc2)c1-c1ccccc1 [H4] | 346%
22 | Cc1cc2oc(=O)c(-c3ccccc3Cl)c(-c3ccccc3)c2cc1Cl [A6] | 76.6%
23 | O=c1oc2cc(O)ccc2c(Cc2ccc(Cl)cc2)c1-c1ccccc1 [A3] | 324%
24 | Cc1cc2oc(=O)c(-c3ccc(Cl)cc3Cl)c(-c3ccccc3)c2cc1Cl [A4] | 361%
25 | Cc1cc2oc(=O)c(-c3ccc(Br)cc3)c(-c3ccccc3)c2cc1Cl [G4] | 390%
26 | COc1ccc(-c2c(-c3ccccc3)c3ccc(O)cc3oc2=O)c(Cl)c1 [F2] | 341%
27 | O=C(O)c1ccccc1-c1c2ccc(=O)cc-2oc2cc(O)ccc12 [A2] | 293%
28 | O=c1oc2ccc(Br)cc2c(-c2ccc(Cl)cc2)c1-c1ccc(Cl)cc1 [G3] | 365%
29 | O=c1oc2cc(O)ccc2c(Cc2ccccc2)c1-c1ccccc1 [G2] | 341%
30 | O=c1oc2ccc(Cl)cc2c(-c2ccccc2)c1-c1ccccc1Cl [D4] | 369%
31 | Cc1cc2oc(=O)c(-c3ccc(Cl)cc3Cl)c(-c3ccc(Cl)cc3)c2cc1Cl [D6] | 360%
32 | O=c1oc2ccc(Br)cc2c(-c2ccccc2)c1-c1ccc(Br)cc1 [E5] | 92.5%
33 | O=c1oc2c(Cl)cc(Cl)cc2c(-c2ccccc2)c1-c1ccccc1 [C5] | 87.2%
34 | O=c1oc2c(Br)cc(Cl)cc2c(-c2ccccc2)c1-c1ccc(Br)cc1 [B2] | 331%
35 | Cc1ccc2c(-c3ccccc3)c(-c3ccc(Br)cc3)c(=O)oc2c1 [B4] | 390%
36 | CC(C)(C)OC(=O)C1Cc2cc3c4c(c2OC1=O)CCCN4CCC3 (centres unmarked) [C3 ST083673] | 328%
37 | O=c1oc2ccc(Cl)cc2c(-c2ccccc2)c1-c1ccc(Cl)cc1Cl [B5] | 83.2%
38 | O=c1oc2cc(O)ccc2c(-c2ccccc2)c1-c1ccccc1 [C2] | 311%
